Test results reported in the supplement of paper PMC7645387.

Assays:
Assay in all cases: growth inhibition relative to DMSO control (fraction); higher = stronger growth inhibition
Details in all cases: treatment time: 6 days
MKL-1 = test system: MKL-1
Experimental: (§1)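 Drug combination matrices: GSK-LSD1 (0, 1, 10, 100 nM) was combined with a second epigenetic drug (0 to 10 uM) on MCC lines PeTa and MKL-1 and on HDFB fibroblasts for 6 days, in quadruplicate. Viability was read by CellTiter-Glo 2.0. The response is the fraction of growth inhibition relative to DMSO, as input to synergyfinder Bliss analysis.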

PeTa = test system: PeTa
Experimental: as §1

HDFB = test system: HDFB
Experimental: as §1

c1ccc([C@@H]2C[C@H]2NC2CCNCC2)cc1 [GSK-LSD1] + CCOC(=O)NCCCC(=O)NCCc1ccccc1 [Santacruzamate A]
growth inhibition
Details | partner concentration 0 nM | partner concentration 1 nM | partner concentration 10 nM | partner concentration 100 nM | partner concentration 1000 nM | partner concentration 10000 nM
HDFB, GSK-LSD1 concentration 0 nM | – | 0.0152 | 0.0273 | -0.00476 | 0.025 | -0.0257
HDFB, GSK-LSD1 concentration 1 nM | 0.0274 | 0.0683 | 0.0641 | 0.0608 | 0.0549 | 0.0385
HDFB, GSK-LSD1 concentration 10 nM | 0.103 | 0.132 | 0.111 | 0.109 | 0.0931 | 0.0944
HDFB, GSK-LSD1 concentration 100 nM | 0.209 | 0.215 | 0.245 | 0.258 | 0.258 | 0.248
MKL-1, GSK-LSD1 concentration 0 nM | – | 0.00478 | -0.00416 | -0.0025 | -0.0148 | -0.0477
MKL-1, GSK-LSD1 concentration 1 nM | 0.0491 | 0.0627 | 0.0768 | 0.068 | 0.072 | 0.014
MKL-1, GSK-LSD1 concentration 10 nM | 0.266 | 0.253 | 0.298 | 0.281 | 0.242 | 0.184
MKL-1, GSK-LSD1 concentration 100 nM | 0.748 | 0.763 | 0.741 | 0.763 | 0.696 | 0.755
PeTa, GSK-LSD1 concentration 0 nM | – | -0.00232 | 0.00932 | 0.0171 | -0.000556 | -0.0248
PeTa, GSK-LSD1 concentration 1 nM | 0.0188 | 0.0434 | 0.0394 | 0.0494 | 0.0221 | -0.00432
PeTa, GSK-LSD1 concentration 10 nM | 0.412 | 0.412 | 0.418 | 0.432 | 0.466 | 0.403
PeTa, GSK-LSD1 concentration 100 nM | 0.786 | 0.751 | 0.762 | 0.748 | 0.793 | 0.814

c1ccc([C@@H]2C[C@H]2NC2CCNCC2)cc1 [GSK-LSD1] + CN1CCN(c2ccc(-c3cccc(CN4CCOCC4)c3)cc2NC(=O)c2c[nH]c(=O)cc2C(F)(F)F)CC1 [OICR9429]
growth inhibition
Details | partner concentration 0 nM | partner concentration 1 nM | partner concentration 10 nM | partner concentration 100 nM | partner concentration 1000 nM | partner concentration 10000 nM
HDFB, GSK-LSD1 concentration 0 nM | – | -0.0114 | 0.00661 | -0.0286 | 0.11 | 0.593
HDFB, GSK-LSD1 concentration 1 nM | 0.0144 | 0.0294 | 0.0019 | 0.0389 | 0.171 | 0.68
HDFB, GSK-LSD1 concentration 10 nM | 0.091 | 0.0858 | 0.0542 | 0.0911 | 0.22 | 0.651
HDFB, GSK-LSD1 concentration 100 nM | 0.149 | 0.113 | 0.145 | 0.139 | 0.282 | 0.676
MKL-1, GSK-LSD1 concentration 0 nM | – | -0.0407 | -0.0602 | -0.0599 | -0.0444 | -0.00949
MKL-1, GSK-LSD1 concentration 1 nM | 0.0584 | 0.0967 | 0.0719 | 0.0573 | 0.0606 | 0.0783
MKL-1, GSK-LSD1 concentration 10 nM | 0.357 | 0.381 | 0.381 | 0.355 | 0.398 | 0.438
MKL-1, GSK-LSD1 concentration 100 nM | 0.717 | 0.695 | 0.709 | 0.735 | 0.775 | 0.797
PeTa, GSK-LSD1 concentration 0 nM | – | -0.0155 | -0.0439 | -0.00944 | 0.0255 | 0.143
PeTa, GSK-LSD1 concentration 1 nM | -0.0127 | -0.0233 | -0.0546 | -0.0748 | 0.0274 | 0.0895
PeTa, GSK-LSD1 concentration 10 nM | 0.451 | 0.456 | 0.365 | 0.381 | 0.437 | 0.509
PeTa, GSK-LSD1 concentration 100 nM | 0.808 | 0.808 | 0.787 | 0.806 | 0.827 | 0.863
